Assays:
Format in all cases: ADME
Design in all cases: dose 2 uM
Conditions in all cases: 2 µM
[1] = biological target: T1, 3-oxo-5-alpha-steroid 4-dehydrogenase (Bacteroides thetaiotaomicron, UniProt Q8A618); experiment: (§1) The drug is tested on Bacteroides thetaiotaomicron strain: VPI-5482 for biotransformation. The drug concentrations were measured before and after a 12-h incubation by liquid-chromatography-coupled mass spectrometry (LC–MS)
T1 sequence (Q8A618 whole entry): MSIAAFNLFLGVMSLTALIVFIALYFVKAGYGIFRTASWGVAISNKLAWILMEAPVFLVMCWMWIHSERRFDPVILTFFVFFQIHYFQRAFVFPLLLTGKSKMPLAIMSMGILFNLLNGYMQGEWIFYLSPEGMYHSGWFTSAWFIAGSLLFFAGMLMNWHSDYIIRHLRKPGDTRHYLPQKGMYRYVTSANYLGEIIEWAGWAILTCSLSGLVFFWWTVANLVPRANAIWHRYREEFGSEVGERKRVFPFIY

General stress protein = General stress protein (Bacteroides thetaiotaomicron, UniProt Q8A7U5); experiment: as §1
[2] = biological target: T2, Lipolytic enzyme, G-D-S-L family (Bacteroides thetaiotaomicron, UniProt Q8A0C5); experiment: as §1
T2 sequence (Q8A0C5 whole entry): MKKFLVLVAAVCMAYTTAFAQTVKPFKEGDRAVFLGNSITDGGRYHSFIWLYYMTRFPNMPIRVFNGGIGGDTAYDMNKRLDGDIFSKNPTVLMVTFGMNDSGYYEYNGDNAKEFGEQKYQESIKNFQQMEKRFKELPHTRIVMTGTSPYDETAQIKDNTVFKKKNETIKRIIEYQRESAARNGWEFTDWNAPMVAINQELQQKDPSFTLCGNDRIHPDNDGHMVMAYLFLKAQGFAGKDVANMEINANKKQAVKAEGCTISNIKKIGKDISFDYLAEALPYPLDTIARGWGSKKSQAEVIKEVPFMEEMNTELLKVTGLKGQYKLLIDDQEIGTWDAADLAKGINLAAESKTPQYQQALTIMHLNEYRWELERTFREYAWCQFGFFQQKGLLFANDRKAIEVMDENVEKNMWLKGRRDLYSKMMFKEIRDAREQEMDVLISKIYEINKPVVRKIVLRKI

[3] = biological target: T3, Lipolytic enzyme, G-D-S-L family (Bacteroides thetaiotaomicron, UniProt Q8A0E6); experiment: as §1
T3 sequence (Q8A0E6 whole entry): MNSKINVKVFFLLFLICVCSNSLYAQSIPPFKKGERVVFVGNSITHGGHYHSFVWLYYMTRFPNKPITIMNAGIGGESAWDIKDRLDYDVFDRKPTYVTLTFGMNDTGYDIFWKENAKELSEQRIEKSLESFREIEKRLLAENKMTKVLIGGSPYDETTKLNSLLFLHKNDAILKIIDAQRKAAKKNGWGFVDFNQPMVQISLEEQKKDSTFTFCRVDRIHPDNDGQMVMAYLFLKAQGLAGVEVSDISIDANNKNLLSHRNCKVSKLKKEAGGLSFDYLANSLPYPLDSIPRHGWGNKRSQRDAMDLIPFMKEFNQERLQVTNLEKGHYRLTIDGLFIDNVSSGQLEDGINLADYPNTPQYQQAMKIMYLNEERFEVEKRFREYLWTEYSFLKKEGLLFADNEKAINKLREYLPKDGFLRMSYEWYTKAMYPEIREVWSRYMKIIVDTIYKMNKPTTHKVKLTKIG

[4] = biological target: T4, NADH dehydrogenase/NAD(P)H nitroreductase (Bacteroides thetaiotaomicron, UniProt Q8A8L9); experiment: as §1
T4 sequence (Q8A8L9 whole entry): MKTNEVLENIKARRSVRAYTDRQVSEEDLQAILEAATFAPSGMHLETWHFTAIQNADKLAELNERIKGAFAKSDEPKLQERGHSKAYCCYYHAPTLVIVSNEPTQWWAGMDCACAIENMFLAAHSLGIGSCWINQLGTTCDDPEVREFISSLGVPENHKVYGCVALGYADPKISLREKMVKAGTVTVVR

Nitroreductase = biological target: T5, Nitroreductase (Bacteroides thetaiotaomicron, UniProt Q8A911); experiment: as §1
T5 sequence (Q8A911 whole entry): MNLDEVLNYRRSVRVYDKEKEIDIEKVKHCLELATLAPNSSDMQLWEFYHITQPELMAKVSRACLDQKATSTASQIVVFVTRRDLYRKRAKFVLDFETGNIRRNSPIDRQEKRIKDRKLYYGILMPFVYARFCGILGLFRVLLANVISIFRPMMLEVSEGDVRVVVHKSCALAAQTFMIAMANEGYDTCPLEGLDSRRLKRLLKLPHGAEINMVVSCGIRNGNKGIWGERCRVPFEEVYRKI

[5] = biological target: T6, Nitroreductase-like protein (Bacteroides thetaiotaomicron, UniProt Q8AB93); experiment: as §1
T6 sequence (Q8AB93 whole entry): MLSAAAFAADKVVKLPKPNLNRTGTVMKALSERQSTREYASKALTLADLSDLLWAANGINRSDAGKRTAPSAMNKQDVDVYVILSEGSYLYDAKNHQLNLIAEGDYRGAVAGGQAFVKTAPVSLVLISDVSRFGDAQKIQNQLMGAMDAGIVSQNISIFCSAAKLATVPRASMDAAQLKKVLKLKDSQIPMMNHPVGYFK

[6] = biological target: T7, Sialic acid-specific acetylesterase (Bacteroides thetaiotaomicron, UniProt Q8A331); experiment: as §1
T7 sequence (Q8A331 whole entry): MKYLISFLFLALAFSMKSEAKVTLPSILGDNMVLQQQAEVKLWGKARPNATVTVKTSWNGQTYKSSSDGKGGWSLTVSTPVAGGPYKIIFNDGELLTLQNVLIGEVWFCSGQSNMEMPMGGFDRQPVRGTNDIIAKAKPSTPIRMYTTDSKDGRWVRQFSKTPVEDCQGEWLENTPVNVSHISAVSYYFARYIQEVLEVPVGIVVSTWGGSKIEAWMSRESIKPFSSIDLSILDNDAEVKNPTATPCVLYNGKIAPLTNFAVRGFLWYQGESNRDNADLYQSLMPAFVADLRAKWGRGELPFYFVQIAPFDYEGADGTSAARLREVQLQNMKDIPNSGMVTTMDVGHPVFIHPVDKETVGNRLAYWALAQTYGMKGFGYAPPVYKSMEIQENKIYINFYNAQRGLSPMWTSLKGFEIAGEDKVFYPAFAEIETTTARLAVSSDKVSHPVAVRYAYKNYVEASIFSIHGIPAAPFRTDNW

Xylanase = biological target: T8, Xylanase (Bacteroides thetaiotaomicron, UniProt Q8A8H5); experiment: as §1
T8 sequence (Q8A8H5 whole entry): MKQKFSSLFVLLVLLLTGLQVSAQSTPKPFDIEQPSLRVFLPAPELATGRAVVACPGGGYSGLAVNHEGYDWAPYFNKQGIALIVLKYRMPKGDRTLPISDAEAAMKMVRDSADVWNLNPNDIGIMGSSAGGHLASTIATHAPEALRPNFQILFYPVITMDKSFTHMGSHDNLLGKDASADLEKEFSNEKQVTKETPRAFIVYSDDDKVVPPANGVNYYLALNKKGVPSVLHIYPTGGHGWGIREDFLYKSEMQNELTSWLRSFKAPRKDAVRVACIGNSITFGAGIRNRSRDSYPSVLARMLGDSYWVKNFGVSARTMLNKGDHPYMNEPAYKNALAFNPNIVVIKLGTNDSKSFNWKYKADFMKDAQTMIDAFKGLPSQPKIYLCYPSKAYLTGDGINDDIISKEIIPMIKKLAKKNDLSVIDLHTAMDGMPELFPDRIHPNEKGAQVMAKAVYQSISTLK

Chain of General stress protein (Q8A7U5 1-138, change not shown): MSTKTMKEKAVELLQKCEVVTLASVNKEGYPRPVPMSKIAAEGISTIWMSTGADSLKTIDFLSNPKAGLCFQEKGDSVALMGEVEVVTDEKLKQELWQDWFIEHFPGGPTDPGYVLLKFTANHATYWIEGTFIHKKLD

| Bacterial Biotransformation [1] | Bacterial Biotransformation (General stress protein) | Bacterial Biotransformation [2] | Bacterial Biotransformation [3] | Bacterial Biotransformation [4] | Bacterial Biotransformation (Nitroreductase) | Bacterial Biotransformation [5] | Bacterial Biotransformation [6] | Bacterial Biotransformation (Xylanase) | SMILES |
| --- | --- | --- | --- | --- | --- | --- | --- | --- | --- |
| Compound NOT metabolized | Compound NOT metabolized | Compound metabolized | Compound NOT metabolized | Compound NOT metabolized | Compound NOT metabolized | Compound NOT metabolized | Compound metabolized | Compound metabolized | CC(=O)SCC(Cc1ccccc1)C(=O)NCC(=O)OCc1ccccc1 (stereo not drawn) [RACECADOTRIL] |
| Compound NOT metabolized | Compound NOT metabolized | Compound NOT metabolized | Compound NOT metabolized | Compound metabolized | Compound metabolized | Compound metabolized | Compound NOT metabolized | Compound NOT metabolized | CCS(=O)(=O)CCn1c([N+](=O)[O-])cnc1C [TINIDAZOLE] |

Reference: ChEMBL document CHEMBL5303573, “Mapping human microbiome drug metabolism by gut bacteria and their genes” (Nature, 2019)
